Test results published in ChEMBL document CHEMBL2150920, “Discovery of a potent and selective small molecule hGPR91 antagonist” (Bioorg Med Chem Lett, 2011).

How the values were obtained:
[1] = Terminal half life in Wistar rat at 3 mg/kg, iv; assay type: ADME, organism-based; design: dose 3 mg/kg, route intravenous; details: in vivo, read-out: beta t1/2 (converted)
[2] = Plasma clearance in Wistar rat at 3 mg/kg, iv; assay type: ADME, organism-based; design: dose 3 mg/kg, route intravenous
Succinate receptor 1 = target: T1, Succinate receptor 1 (Homo sapiens, UniProt Q9BXA5); experiment: Antagonist activity at human GPR91 receptor expressed in CHO-K1 cells co-expressing Galpha and Gqi5 G-protein assessed as inhibition of succinate-induced increase in intracellular calcium level by FLIPR assay; assay type: functional, cell-based
T1 sequence (Q9BXA5 whole entry): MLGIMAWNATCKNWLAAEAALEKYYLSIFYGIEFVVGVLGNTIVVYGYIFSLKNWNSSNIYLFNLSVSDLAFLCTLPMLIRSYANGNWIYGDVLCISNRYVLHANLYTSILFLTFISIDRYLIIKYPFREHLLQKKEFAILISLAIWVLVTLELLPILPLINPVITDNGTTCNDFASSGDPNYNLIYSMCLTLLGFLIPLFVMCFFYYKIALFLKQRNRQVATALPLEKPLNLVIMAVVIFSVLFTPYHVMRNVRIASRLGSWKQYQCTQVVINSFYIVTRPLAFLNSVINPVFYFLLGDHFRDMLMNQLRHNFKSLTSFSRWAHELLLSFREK

Liver microsomes = experiment: Intrinsic clearance in rat liver microsomes preincubated for 5 mins before addition of NADPH measured after 30 mins by LC/MS/MS analysis; assay type: ADME, Microsome; details: 0.5 h
[3] = Plasma concentration in Wistar rat plasma at 100 mg/kg, ip at 4 hrs; assay type: ADME, organism-based; design: dose 100 mg/kg, route intraperitoneal
[4] = AUC (0 to 24 hrs) in Wistar rat plasma at 100 mg/kg, ip; assay type: ADME, organism-based; design: time < 24 hr, dose 100 mg/kg, route intraperitoneal
[5] = Cmax in Wistar rat at 100 mg/kg, ip by LC/MS/MS analysis; assay type: ADME, organism-based; design: dose 100 mg/kg, route intraperitoneal; details: in vivo
Rattus norvegicus [6] = experiment: Hypotensive activity in Wistar rat assessed as inhibition of succinate-induced increase in mean arterial pressure at 100 mg/kg, ip after 2 hrs post dose; assay type: functional; details: Artery, route intraperitoneal
[7] = Plasma concentration in Wistar rat plasma at 100 mg/kg, ip at 2 hrs; assay type: ADME, organism-based; design: dose 100 mg/kg, route intraperitoneal
[8] = target: 2-oxoglutarate receptor 1 (Homo sapiens, UniProt Q96P68); experiment: Antagonist activity at human GPR99 receptor expressed in CHO-K1 cells co-expressing Galpha and Gqi5 G-protein assessed as inhibition of succinate-induced increase in intracellular calcium level at by FLIPR assay; assay type: functional, cell-based
Sequence of 2-oxoglutarate receptor 1 (Q96P68 whole entry, looked up): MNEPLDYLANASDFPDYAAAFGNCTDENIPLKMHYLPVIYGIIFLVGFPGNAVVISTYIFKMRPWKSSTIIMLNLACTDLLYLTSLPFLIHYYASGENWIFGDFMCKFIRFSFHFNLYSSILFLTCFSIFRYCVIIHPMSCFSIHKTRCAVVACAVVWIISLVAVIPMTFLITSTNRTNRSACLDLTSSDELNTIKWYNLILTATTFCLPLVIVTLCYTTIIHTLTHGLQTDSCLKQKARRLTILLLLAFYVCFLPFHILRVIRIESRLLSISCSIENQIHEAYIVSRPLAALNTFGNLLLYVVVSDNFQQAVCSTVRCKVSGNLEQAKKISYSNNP

[9] = Tmax in Wistar rat at 100 mg/kg, ip; assay type: ADME, organism-based; design: dose 100 mg/kg, route intraperitoneal; details: in vivo
[10] = Cmax in Wistar rat at 3 mg/kg, iv by LC/MS/MS analysis; assay type: ADME, organism-based; design: dose 3 mg/kg, route intravenous; details: in vivo
[11] = Plasma protein binding in Wistar rat at 100 mg/kg, ip; assay type: ADME, organism-based; design: dose 100 mg/kg, route intraperitoneal; details: read-out: PPB
[12] = Volume of distribution at steady state in Wistar rat at 3 mg/kg, iv; assay type: ADME, organism-based; design: dose 3 mg/kg, route intravenous; details: in vivo, read-out: Vdss
Kidney = experiment: Drug concentration in Wistar rat kidney at 100 mg/kg, ip; assay type: ADME, organism-based; design: dose 100 mg/kg, route intraperitoneal; details: in vivo, read-out: Drug uptake
Rattus norvegicus [13] = experiment: Hypotensive activity in Wistar rat assessed as inhibition of succinate-induced increase in mean arterial pressure at 100 mg/kg, ip after 4 hrs post dose; assay type: functional; details: Artery, route intraperitoneal
[14] = Plasma concentration in Wistar rat plasma at 100 mg/kg, ip at 8 hrs; assay type: ADME, organism-based; design: dose 100 mg/kg, route intraperitoneal

half-life [1]: 0.9 h
clearance [2]: 2.16 L/h/kg
IC50 (Succinate receptor 1): 7 nM
Intrinsic clearance (Liver microsomes): 0.2 nmol/min/mg
concentration at 4 h [3]: 0.33 µM
AUC(0-t) at 24 h [4]: 4.3 µM·h
Cmax [5]: 0.4 µM
concentration at 2 h [7]: 0.24 µM
IC50 [8]: > 30000 nM
Tmax [9]: 4.9 h
Cmax [10]: 9.8 µM
fraction unbound [11]: 0.01
Vd [12]: 1 L/kg
concentration (Kidney): 8 µM
concentration at 8 h [14]: 0.28 µM
Structure (SMILES): C[C@H](NC(=O)Cc1ccc(-c2ccc3cccnc3n2)cc1)c1ccc(-c2ccc(F)c(C(F)(F)F)c2)cc1
inhibition in vivo at 100 mg/kg (Rattus norvegicus [6]): 59%
inhibition in vivo at 100 mg/kg (Rattus norvegicus [13]): 76%
